Test results taken from ChEMBL document CHEMBL3862043, “Fluorescent Inhibitors as Tools To Characterize Enzymes: Case Study of the Lipid Kinase Phosphatidylinositol 4-Kinase IIIβ (PI4KB)” (J Med Chem, 2017).

Test: Drug uptake in vesicles of HeLa cells transfected with iRFP-tagged PI4KB (unknown origin) incubated for 30 mins by fluorescence spectroscopy
Type: ADME, cell-based
Details: human, 0.5 h; call rule not given here

Drug uptake: Active
Structure (SMILES): CCc1cc(CNc2cc(Cl)nn3c(-c4ccc(OC)c(S(=O)(=O)NCc5cn(-c6cc7ccc(O)cc7oc6=O)nn5)c4)c(C)nc23)ccn1
